Results on 13 molecules are retold here after patent publication US12247028B2, “Azabicyclo and diazepine derivatives” (Alcon Inc., priority 2017, dated 2025).

The target in test [1] is T1, Human muscarinic receptor M1 (Homo sapiens, UniProt P11229).
T1 construct: host or cells: cell membrane homogenates
T1 sequence (P11229 1-460): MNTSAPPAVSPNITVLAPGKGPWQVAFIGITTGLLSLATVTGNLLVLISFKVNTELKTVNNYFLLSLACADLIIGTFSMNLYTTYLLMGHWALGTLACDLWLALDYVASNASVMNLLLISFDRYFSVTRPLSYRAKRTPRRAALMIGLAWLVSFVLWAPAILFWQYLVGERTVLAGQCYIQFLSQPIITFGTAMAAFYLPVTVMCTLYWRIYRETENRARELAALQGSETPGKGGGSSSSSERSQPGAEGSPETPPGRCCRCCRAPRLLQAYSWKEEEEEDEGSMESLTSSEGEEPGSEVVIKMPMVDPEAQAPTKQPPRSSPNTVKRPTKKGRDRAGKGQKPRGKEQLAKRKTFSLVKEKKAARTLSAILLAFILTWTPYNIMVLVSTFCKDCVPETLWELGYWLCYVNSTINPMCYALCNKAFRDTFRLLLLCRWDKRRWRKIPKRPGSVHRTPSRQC
The test is described as follows: Human muscarinic receptor assay M1, [3H]pirenzepine binding. As to conditions: 2 nM [3H]pirenzepine, cell membrane homogenates. The method, then:
(§1) Human Muscarinic Receptor Assay
Cell membrane homogenates (45 μg protein) are incubated for 60 min at 22° C. with 2 nM [3H]pirenzepine in the absence or presence of the test compound in a buffer containing 50 mM Tris-HCl (pH 7.4), 120 mM NaCl, 5 mM KCl, 5 mM MgCl2 and 1 mM EDTA. Nonspecific binding is determined in the presence of 1 μM atropine. Following incubation, the samples are filtered rapidly under vacuum through glass fiber filters (GF/B, Packard) presoaked with 0.3% PEI and rinsed several times with ice-cold 50 mM Tris-HCl using a 96-sample cell harvester (Unifilter, Packard). The filters are dried then counted for radioactivity in a scintillation counter (Topcount, Packard) using a scintillation cocktail (Microscint 0, Packard). The results are expressed as a percent inhibition of the control radioligand specific binding. The standard reference compound is pirenzepine, which is tested in each experiment at several concentrations to obtain a competition curve from which its Ki and IC50 are calculated.

For test [2], the target named is T2, Human muscarinic receptor M3 (Homo sapiens, UniProt P20309).
T2 construct: host or cells: cell membrane homogenates
T2 sequence (P20309 whole entry): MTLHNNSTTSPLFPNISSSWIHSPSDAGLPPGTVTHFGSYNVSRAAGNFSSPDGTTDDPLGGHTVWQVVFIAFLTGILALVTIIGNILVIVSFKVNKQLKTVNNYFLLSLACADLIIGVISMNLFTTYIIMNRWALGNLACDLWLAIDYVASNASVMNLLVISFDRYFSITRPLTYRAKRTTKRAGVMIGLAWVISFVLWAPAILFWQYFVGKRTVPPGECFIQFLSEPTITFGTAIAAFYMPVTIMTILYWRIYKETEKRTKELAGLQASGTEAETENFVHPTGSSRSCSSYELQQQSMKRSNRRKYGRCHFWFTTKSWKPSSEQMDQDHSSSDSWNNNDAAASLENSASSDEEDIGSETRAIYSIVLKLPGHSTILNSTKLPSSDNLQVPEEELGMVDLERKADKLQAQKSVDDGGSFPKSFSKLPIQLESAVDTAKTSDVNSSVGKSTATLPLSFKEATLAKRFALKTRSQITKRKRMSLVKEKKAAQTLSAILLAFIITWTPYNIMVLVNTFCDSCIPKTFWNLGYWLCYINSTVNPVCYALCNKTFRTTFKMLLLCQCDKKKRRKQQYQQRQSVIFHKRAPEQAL
Description: Human muscarinic receptor assay M3, [3H]4-DAMP binding. As to conditions: for Ki: 0.2 nM [3H]4-DAMP, cell membrane homogenates. As for the experimental part:
as §1
(§2) Cell membrane homogenates (8 μg protein) are incubated for 60 min at 22° C. with 0.2 nM [3H]4-DAMP in the absence or presence of the test compound in a buffer containing 10 mM Tris-HCl (pH 7.4) and 2 mM EDTA. Nonspecific binding is determined in the presence of 1 μM atropine. Following incubation, the samples are filtered rapidly under vacuum through glass fiber filters (GF/B, Packard) presoaked with 0.3% PEI and rinsed several times with ice-cold 50 mM Tris-HCl using a 96-sample cell harvester (Unifilter, Packard). The filters are dried then counted for radioactivity in a scintillation counter (Topcount, Packard) using a scintillation cocktail (Microscint 0, Packard). The results are expressed as a percent inhibition of the control radioligand specific binding. The standard reference compound is 4-DAMP, which is tested in each experiment at several concentrations to obtain a competition curve from which its Ki and IC50 are calculated.

Test [3] addresses T3, Human muscarinic receptor M4 (Homo sapiens, UniProt P08173).
T3 construct: host or cells: cell membrane homogenates
T3 sequence (P08173 1-479): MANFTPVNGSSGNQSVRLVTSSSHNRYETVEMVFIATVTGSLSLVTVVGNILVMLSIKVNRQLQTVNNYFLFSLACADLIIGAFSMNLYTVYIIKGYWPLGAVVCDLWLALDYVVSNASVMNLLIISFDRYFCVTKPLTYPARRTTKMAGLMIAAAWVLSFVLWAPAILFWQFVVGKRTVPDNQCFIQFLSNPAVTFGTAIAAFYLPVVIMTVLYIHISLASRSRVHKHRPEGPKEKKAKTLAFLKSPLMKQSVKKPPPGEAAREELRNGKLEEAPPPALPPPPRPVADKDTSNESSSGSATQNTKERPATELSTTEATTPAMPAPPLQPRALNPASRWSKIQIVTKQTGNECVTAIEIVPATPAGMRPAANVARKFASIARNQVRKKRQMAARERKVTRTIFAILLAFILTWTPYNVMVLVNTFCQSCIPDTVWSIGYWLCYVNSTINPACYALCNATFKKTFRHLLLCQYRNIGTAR
The test is described as follows: Human muscarinic receptor assay M4, [3H]4-DAMP binding. The method, then:
as §1
as §2, with “(16” for “(8”

Like-named read-outs stand apart in the source and are kept apart here. A value given as a limit tells only on which side of the number the result lay.

Consider `CN1C2CCC1CC(OC(=O)C(CO)(Cc1ccc(F)cc1)c1ccccc1)C2` (stereo not drawn), for which the figures for the Ki in test [1], in test [2] and in test [3] were 300 nM, 310 nM and 200 nM, respectively.
For `CN1C2CCC1CC(OC(=O)C(C)(CO)c1ccccc1)C2` (stereo not drawn) the same measures were 3.1 nM, 2 nM and 0.58 nM.
Regarding `CCC(CO)(C(=O)OC1CC2CCC(C1)N2C)c1ccccc1` (stereo not drawn), the results for the Ki in test [1], in test [2] and in test [3] were 4.4 nM, 1.3 nM and 0.71 nM, respectively.
The like results for `CN1C2CCC1CC(OC(=O)C(C)(CF)c1ccccc1)C2` (stereo not drawn) were, in that order, 27 nM, 14 nM and 5.8 nM.
Take `COc1ccc(CC(CO)(C(=O)OC2CC3CCC(C2)N3C)c2ccccc2)cc1` (stereo not drawn): the values for the Ki in test [1] and in test [2] were 570 nM and 610 nM, respectively. Also, in test [3] (read-out: percent inhibition of the control radioligand specific binding, M4), the inhibition at 1 µM was less than 50%.
For `CN1C2CCC1CC(OC(=O)C(CO)(CC(F)(F)F)c1ccccc1)C2` (stereo not drawn), the Ki in test [1] turned out to be 8.2 nM; in test [2], 2 nM; in test [3] it was 1.7 nM.
For `CN1C2CCC1CC(OC(=O)C(CO)(Cc1ccccc1)c1ccccc1)C2` (stereo not drawn), the Ki was 600 nM in test [1] and 230 nM in test [3] (0.2 nM [3H]4-DAMP, cell membrane homogenates, read-out: Ki M4). In test [2] (@ 1 μM, read-out: percent inhibition of the control radioligand specific binding, M3), the inhibition at 1 µM was less than 50%.
In the case of `CN1C2CCC1CC(OC(=O)C(CO)(CC1CC1)c1ccccc1)C2` (stereo not drawn), the Ki in test [1] was 3.4 nM; in test [2], 1.3 nM; in test [3], 0.57 nM.
For `CN1C2CCC1CC(OC(=O)C(C)(CO)c1cccs1)C2` (stereo not drawn) the same measures were 2.5 nM, 0.78 nM and 0.39 nM.
The like results for `COCC(C)(C(=O)OC1CC2CCC(C1)N2C)c1ccccc1` (stereo not drawn) were, in that order, 19 nM, 13 nM and 7.4 nM.
On to `CN1C2CCC1CC(OC(=O)C(CO)(CO)c1ccccc1)C2` (stereo not drawn), for which the Ki worked out at 17 nM in test [1], 4.1 nM in test [2] and 3 nM in test [3].
The like results for `CN1C2CCC1CC(OC(=O)C(F)(CO)c1ccccc1)C2` (stereo not drawn) were, in that order, 3.5 nM, 2.9 nM and 0.48 nM.
For `CN1C2CCC1CC(NC(=O)C(C)(CO)c1ccccc1)C2` (stereo not drawn) the same measures were 230 nM, 150 nM and 83 nM.

The term Ki denotes a measure of affinity in units of concentration, obtained from inhibition or displacement. A word on the inhibition: it is the relative decrease from the control value, in per cent.
